The values that follow come from patent US5958770A, “Glycoalkaloids” (priority 1990, dated 1999).

Structures are written as SMILES. Like-named read-outs stand apart in the source and are kept apart here.

Series [1] has as its system ovarian cancer cells. The series can be described thus: Morphological examination of ovarian cancer cells (Papanicolaou). To be noted: 17 hours; FIG. 4B. The series is classed as cell-based, human. The method, then:
Appropriate DMSO cytotoxicity studies were also conducted.
A human ovarian cancer cell line (C180-135) was grown as mono layers and trypsinized to form a cell suspension. The cells were adjusted to a concentration of 1×10^5 /ml (viability ≥95%) and 200 μl placed in each of the eight chambers of microscope chamber slides (Lab Tek, Miles Scientific). After 21 hours preincubation at 37.5° C., 50 μl of supplemented tissue culture media were added to the control chambers. To the other chambers were added 50 μl of solasodine glycosides (BEC) to give final concentrations of 3, 4.8, 6.7, 7.7, 9.6, 11.1 and 15.3 μM/L. Similarly, to a separate chamber slide was added the aglycone solasodine (19.4-96.8 μM/L). The slides were incubated at 37.5° C. for a further 3 hours, and the cells fixed in 95% V/V alcohol and stained by the Papanicolaou method. Two other chamber slides were prepared in a similar manner, but the solasodine glycosides and the aglycone were added at a final concentration of 0.77, 1.5, 2.3, 3.1 and 3.8 μM/L after 7 hours preincubation, and they incubated for a further 17 hours.

Series [2] is described as follows: in vitro. To be noted: human, pwm stimulated lymphocytes.
Description: (§1) This was cultured for 48 hours and pulsed with tritiated thymidine for a further 24 hours. In the inhibition studies, the cell concentration was 8×10^5 /ml.
(§2) All cells were harvested by vacuum filtration by washing in 250 μl of each of phosphate buffered saline, 5% trichloroacetic acid, 1.0M NaCl and 95% ethanol and subjected to β-scintillatian counting. Similarly, peripheral human blood lymphocytes were isolated and cultured 2×10^5 lymphocytes in CO2 1640TCM 10% HIFCS. Lymphocytes were stimulated with 20 μg/ml PHA, Con A or PWM, and cultured for 48 hrs followed by a 24 hr pulse. […] Cell concentrations were 8×10^4 /well total volume 250 μl. The dpm of the experimental replicates were expressed as a percentage of the mean value of the controls, and the mean value of the experimental replicates calculated.
Series [3] in a line: in vitro. As to conditions: human, con a stimulated lymphocytes.
Description: as §1, §2
Series [4] deals with ovarian cancer cells. The series can be described thus: Solamargine cytotoxicity in presence and absence of carbohydrates, ovarian cancer cells. The series is classed as cell-based, human. To be noted: Homo sapiens, OvCa, solamargine 1.54 μM/L, read-out: Percentage Survival. The procedure:
A mixture of solasodine glycosides (BEC), of which the active compound is solamargine and from which the aglycone solasodine is derived was prepared for use in cytotoxicity assays as determined by the uptake of tritiated thymidine. Inhibition studies were carried out with lactose, lactosyl-albumin, galactose or rhamnose (Sigma Chemical Co., USA). All experimental replicates were related to their own controls. Total volume of replicates was 250 μl (carbohydrates added in 50 μl tissue culture media+10% fetal calf serum), and the cell concentrations were 8×10^4 /ml.

As for `C[C@@H]1CC[C@@]2(NC1)O[C@H]1C[C@H]3[C@@H]4CC=C5C[C@@H](O[C@@H]6O[C@H](CO)[C@@H](O[C@@H]7O[C@@H](C)[C@H](O)[C@@H](O)[C@H]7O)[C@H](O)[C@H]6O[C@@H]6O[C@@H](C)[C@H](O)[C@@H](O)[C@H]6O)CC[C@]5(C)[C@H]4CC[C@]3(C)[C@H]1[C@@H]2C` [Solamargine, solamargine], the “morphological effect on ovarian cancer cells” value in the series with ovarian cancer cells [1] is recorded as “absence of cancer cells upon cytological examination”. In addition, the viability at 11.5 µM in the series “in vitro [2]” is 93 ± 9.4%; in “in vitro [3]”, 79 ± 4%. The viability at 1.54 µM with ovarian cancer cells [4] (1.1 μM/L galactose, ** p = 0.001) is 79%; with ovarian cancer cells [4] (1.1 μM/L lactose, * p < 0.02 > 0.01) it was 75%; with ovarian cancer cells [4] (1.1 μM/L rhamnose), 67 ± 7.5%; in the series on ovarian cancer cells [4] (no carbohydrate), 62 ± 7%.
